In PubChem BioAssay (NCI):
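In this assay, cells in 96-well plates receive the compound at five concentrations for 48 hours. Endpoints are linearly interpolated between the surrounding concentrations. GI50: concentration for 50% inhibition of growth. At the TGI there is no net growth.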

Experiments:
Assay in all cases: NCI-60 cell line screen, 48 h
[1] = system: MDA-MB-435
[2] = system: KM12 colon
[3] = system: MDA-MB-231 breast
[4] = system: UO-31 renal
[5] = system: K-562 leukemia
[6] = system: HS 578T breast
[7] = system: A498 renal
[8] = system: NCI/ADR-RES ovarian
[9] = system: PC-3 prostate
[10] = system: MCF7 breast
[11] = system: SF-295 CNS
[12] = system: HT29 colon
[13] = system: SK-OV-3 ovarian
[14] = system: IGROV1 ovarian
[15] = system: NCI-H23 lung
[16] = system: OVCAR-3 ovarian
[17] = system: SW-620 colon
[18] = system: SN12C renal
[19] = system: HCT-116 colon
[20] = system: DU-145 prostate
[21] = system: HCC-2998 colon
[22] = system: BT-549 breast
[23] = system: MOLT-4 leukemia
[24] = system: A549 NSCLC
[25] = system: UACC-62 melanoma
[26] = system: U251 CNS
[27] = system: SK-MEL-5 melanoma
[28] = system: OVCAR-4 ovarian
[29] = system: SNB-19 CNS
[30] = system: CCRF-CEM leukemia
[31] = system: SK-MEL-2 melanoma
[32] = system: NCI-H460 lung
[33] = system: 786-0 renal
[34] = system: UACC-257 melanoma
[35] = system: MALME-3M melanoma
[36] = system: SF-268 CNS
[37] = system: CAKI-1 renal
[38] = system: OVCAR-8 ovarian
[39] = system: HOP-92 NSCLC
[40] = system: M14 melanoma
[41] = system: EKVX NSCLC
[42] = system: TK-10 renal
[43] = system: HL-60(TB) leukemia
[44] = system: HCT-15 colon
[45] = system: T-47D breast
[46] = system: NCI-H522 lung
[47] = system: SR leukemia
[48] = system: SK-MEL-28 melanoma
[49] = system: SNB-75 CNS
[50] = system: OVCAR-5 ovarian
[51] = system: LOX IMVI melanoma
[52] = system: ACHN renal
[53] = system: RXF 393 renal
[54] = system: SF-539 CNS
[55] = system: COLO 205 colon
[56] = system: RPMI-8226 leukemia
[57] = system: HOP-62 NSCLC
[58] = system: NCI-H226 lung

## COC(=O)c1cc2c3ccccc3n3c2c(n1)-c1[nH]c2ccccc2c(=O)c1C3
[1]
  GI50: > 100 µM
  TGI: > 100 µM
[2]
  GI50: > 100 µM
  TGI: > 100 µM
[3]
  GI50: 33.7 µM
  TGI: > 100 µM
[4]
  GI50: > 100 µM
  TGI: > 100 µM
[5]
  GI50: > 100 µM
  TGI: > 100 µM
[6]
  GI50: 15.4 µM
  TGI: > 100 µM
[7]
  GI50: 27 µM
  TGI: 73.7 µM
[8]
  GI50: > 100 µM
  TGI: > 100 µM
[9]
  GI50: > 100 µM
  TGI: > 100 µM
[10]
  GI50: 15.6 µM
  TGI: > 100 µM
[11]
  GI50: 32 µM
  TGI: > 100 µM
[12]
  GI50: > 100 µM
  TGI: > 100 µM
[13]
  GI50: 19.6 µM
  TGI: > 100 µM
[14]
  GI50: 24.6 µM
  TGI: > 100 µM
[15]
  GI50: 38.9 µM
  TGI: > 100 µM
[16]
  GI50: > 100 µM
  TGI: > 100 µM
[17]
  GI50: > 100 µM
  TGI: > 100 µM
[18]
  GI50: > 100 µM
  TGI: > 100 µM
[19]
  GI50: 21 µM
  TGI: > 100 µM
[20]
  GI50: > 100 µM
  TGI: > 100 µM
[21]
  GI50: > 100 µM
  TGI: > 100 µM
[22]
  GI50: 22.6 µM
  TGI: 63.2 µM
[23]
  GI50: 5.9 µM
  TGI: > 100 µM
[24]
  GI50: > 100 µM
  TGI: > 100 µM
[25]
  GI50: 43.3 µM
  TGI: > 100 µM
[26]
  GI50: 15.2 µM
  TGI: 52.3 µM
[27]
  GI50: > 100 µM
  TGI: > 100 µM
[28]
  GI50: > 100 µM
  TGI: > 100 µM
[29]
  GI50: 26.3 µM
  TGI: > 100 µM
[30]
  GI50: 2.19 µM
  TGI: > 100 µM
[31]
  GI50: 36.4 µM
  TGI: > 100 µM
[32]
  GI50: > 100 µM
  TGI: > 100 µM
[33]
  GI50: 16.8 µM
  TGI: 60.3 µM
[34]
  GI50: > 100 µM
  TGI: > 100 µM
[35]
  GI50: > 100 µM
  TGI: > 100 µM
[36]
  GI50: 29.6 µM
  TGI: > 100 µM
[37]
  GI50: > 100 µM
  TGI: > 100 µM
[38]
  GI50: > 100 µM
  TGI: > 100 µM
[39]
  GI50: 11.4 µM
  TGI: 29.3 µM
[40]
  GI50: > 100 µM
  TGI: > 100 µM
[41]
  GI50: 79 µM
  TGI: > 100 µM
[42]
  GI50: 23 µM
  TGI: 45.9 µM
[43]
  GI50: > 100 µM
  TGI: > 100 µM
[44]
  GI50: > 100 µM
  TGI: > 100 µM
[45]
  GI50: 58.4 µM
  TGI: > 100 µM
[46]
  GI50: 66.3 µM
  TGI: > 100 µM
[47]
  GI50: 17.3 µM
  TGI: 96.9 µM
[48]
  GI50: > 100 µM
  TGI: > 100 µM
[49]
  GI50: 16 µM
  TGI: 71.3 µM
[50]
  GI50: > 100 µM
  TGI: > 100 µM
[51]
  GI50: > 100 µM
  TGI: > 100 µM
[52]
  GI50: 33.6 µM
  TGI: > 100 µM
[53]
  GI50: 16.3 µM
  TGI: 66.9 µM
[54]
  GI50: 20.3 µM
  TGI: 77.6 µM
[55]
  GI50: > 100 µM
  TGI: > 100 µM

## N#Cc1cnc(Nc2cc(NC[C@H]3CNCCO3)c(C(F)(F)F)cn2)cn1
[1]
  GI50: 3.56 µM
  TGI: 27.2 µM
[2]
  GI50: 11.4 µM
  TGI: 88.4 µM
[3]
  GI50: 13.1 µM
  TGI: 47 µM
[4]
  GI50: 5.49 µM
  TGI: 69.2 µM
[5]
  GI50: 3.19 µM
  TGI: 22.1 µM
[6]
  GI50: 0.882 µM
  TGI: 60.3 µM
[7]
  GI50: 0.462 µM
  TGI: 18 µM
[8]
  GI50: 1.73 µM
  TGI: 84.5 µM
[9]
  GI50: 21.1 µM
  TGI: 87.5 µM
[56]
  GI50: 15.7 µM
  TGI: 56.3 µM
[10]
  GI50: 0.639 µM
  TGI: 23 µM
[11]
  GI50: 0.525 µM
  TGI: > 100 µM
[12]
  GI50: 25.7 µM
  TGI: 92 µM
[13]
  GI50: 3.62 µM
  TGI: 38.9 µM
[14]
  GI50: 5.57 µM
  TGI: 70.6 µM
[15]
  GI50: 0.791 µM
  TGI: 26.8 µM
[16]
  GI50: 13.3 µM
  TGI: 48.3 µM
[17]
  GI50: 18.1 µM
  TGI: 73.8 µM
[18]
  GI50: 17.7 µM
  TGI: 83 µM
[19]
  GI50: 23.3 µM
  TGI: > 100 µM
[20]
  GI50: 8.07 µM
  TGI: 40.2 µM
[21]
  GI50: 6.84 µM
  TGI: 30.2 µM
[22]
  GI50: 5.62 µM
  TGI: 32 µM
[23]
  GI50: 3.61 µM
  TGI: 55.2 µM
[24]
  GI50: 20.6 µM
  TGI: > 100 µM
[25]
  GI50: 5.17 µM
  TGI: 25.1 µM
[26]
  GI50: 21.8 µM
  TGI: 73 µM
[27]
  GI50: 9.3 µM
  TGI: 21.6 µM
[28]
  GI50: 10.5 µM
  TGI: 82.7 µM
[29]
  GI50: 9.67 µM
  TGI: > 100 µM
[30]
  GI50: 0.8 µM
  TGI: > 100 µM
[31]
  GI50: 12.6 µM
  TGI: 34.7 µM
[32]
  GI50: 13.4 µM
  TGI: 38.3 µM
[33]
  GI50: 0.668 µM
  TGI: 29 µM
[34]
  GI50: 19.3 µM
  TGI: 45.8 µM
[35]
  GI50: 10.4 µM
  TGI: 27.8 µM
[36]
  GI50: 16.2 µM
  TGI: 47.5 µM
[38]
  GI50: 3.69 µM
  TGI: 93 µM
[57]
  GI50: 6.54 µM
  TGI: 36.8 µM
[39]
  GI50: 8.95 µM
  TGI: 26.6 µM
[40]
  GI50: 0.388 µM
  TGI: 16.7 µM
[41]
  GI50: 17.5 µM
  TGI: 59.4 µM
[42]
  GI50: 3.66 µM
  TGI: 36 µM
[43]
  GI50: 2.15 µM
  TGI: 15.4 µM
[44]
  GI50: 11 µM
  TGI: > 100 µM
[45]
  GI50: 16.6 µM
  TGI: 51.5 µM
[46]
  GI50: 13.1 µM
  TGI: 34.9 µM
[47]
  GI50: 0.64 µM
  TGI: 24 µM
[48]
  GI50: 16.3 µM
  TGI: 46.5 µM
[49]
  GI50: 11.5 µM
  TGI: 28.1 µM
[50]
  GI50: 9.37 µM
  TGI: 67.1 µM
[51]
  GI50: 7.15 µM
  TGI: 24.2 µM
[53]
  GI50: 0.858 µM
  TGI: 18.2 µM
[54]
  GI50: 0.669 µM
  TGI: 17.3 µM
[58]
  GI50: 22.4 µM
  TGI: 85.3 µM
[55]
  GI50: 9.61 µM
  TGI: 23.6 µM
